Data as given in PubChem BioAssay (NCI).
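1) Cells in 96-well plates. 2) Compound, 48 h, 5 concentrations. 3) Linear interpolation between surrounding doses. 4) Unreached endpoint = highest concentration. GI50 = concentration required for 50% inhibition of growth. The concentration for full growth arrest is given as TGI.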

What was measured:
Test in all cases: inhibition of tumour cell growth, NCI panel, 48 h
NCI-H460 lung = tested on: NCI-H460 lung
IGROV1 ovarian = tested on: IGROV1 ovarian
SF-295 CNS = tested on: SF-295 CNS
CAKI-1 renal = tested on: CAKI-1 renal
M14 melanoma = tested on: M14 melanoma
SF-539 CNS = tested on: SF-539 CNS
PC-3 prostate = tested on: PC-3 prostate
OVCAR-3 ovarian = tested on: OVCAR-3 ovarian
SN12C renal = tested on: SN12C renal
SF-268 CNS = tested on: SF-268 CNS
SR leukemia = tested on: SR leukemia
LOX IMVI melanoma = tested on: LOX IMVI melanoma
HS 578T breast = tested on: HS 578T breast
SK-OV-3 ovarian = tested on: SK-OV-3 ovarian
SW-620 colon = tested on: SW-620 colon
HT29 colon = tested on: HT29 colon
SNB-75 CNS = tested on: SNB-75 CNS
MOLT-4 leukemia = tested on: MOLT-4 leukemia
NCI-H226 lung = tested on: NCI-H226 lung
K-562 leukemia = tested on: K-562 leukemia
DU-145 prostate = tested on: DU-145 prostate
T-47D breast = tested on: T-47D breast
MDA-MB-435 = tested on: MDA-MB-435
MALME-3M melanoma = tested on: MALME-3M melanoma
EKVX NSCLC = tested on: EKVX NSCLC
SK-MEL-5 melanoma = tested on: SK-MEL-5 melanoma
CCRF-CEM leukemia = tested on: CCRF-CEM leukemia
OVCAR-5 ovarian = tested on: OVCAR-5 ovarian
RXF 393 renal = tested on: RXF 393 renal
KM12 colon = tested on: KM12 colon
MDA-MB-231 breast = tested on: MDA-MB-231 breast
RPMI-8226 leukemia = tested on: RPMI-8226 leukemia
BT-549 breast = tested on: BT-549 breast
NCI/ADR-RES ovarian = tested on: NCI/ADR-RES ovarian
SNB-19 CNS = tested on: SNB-19 CNS
HCC-2998 colon = tested on: HCC-2998 colon
SK-MEL-2 melanoma = tested on: SK-MEL-2 melanoma
UACC-62 melanoma = tested on: UACC-62 melanoma
HOP-62 NSCLC = tested on: HOP-62 NSCLC
OVCAR-8 ovarian = tested on: OVCAR-8 ovarian
NCI-H23 lung = tested on: NCI-H23 lung
MCF7 breast = tested on: MCF7 breast
HCT-116 colon = tested on: HCT-116 colon
A498 renal = tested on: A498 renal
NCI-H522 lung = tested on: NCI-H522 lung
U251 CNS = tested on: U251 CNS
ACHN renal = tested on: ACHN renal
COLO 205 colon = tested on: COLO 205 colon
TK-10 renal = tested on: TK-10 renal
HCT-15 colon = tested on: HCT-15 colon
UACC-257 melanoma = tested on: UACC-257 melanoma
786-0 renal = tested on: 786-0 renal
UO-31 renal = tested on: UO-31 renal
OVCAR-4 ovarian = tested on: OVCAR-4 ovarian
HL-60(TB) leukemia = tested on: HL-60(TB) leukemia
A549 NSCLC = tested on: A549 NSCLC
HOP-92 NSCLC = tested on: HOP-92 NSCLC
SK-MEL-28 melanoma = tested on: SK-MEL-28 melanoma

## CCN(CCCNC(=O)Cc1cc(=O)oc2cc(N(C)C)ccc12)CCNc1ccnc2cc(Cl)ccc12
NCI-H460 lung
  GI50: 9.54 µM
  TGI: 22.3 µM
IGROV1 ovarian
  GI50: 13.1 µM
  TGI: 35.1 µM
SF-295 CNS
  GI50: 12.4 µM
  TGI: 27.6 µM
CAKI-1 renal
  GI50: 15.6 µM
  TGI: 39.5 µM
M14 melanoma
  GI50: 2.08 µM
  TGI: 3.85 µM
SF-539 CNS
  GI50: 1.69 µM
  TGI: 3.42 µM
PC-3 prostate
  GI50: 13.8 µM
  TGI: 37.9 µM
OVCAR-3 ovarian
  GI50: 14 µM
  TGI: 33.2 µM
SN12C renal
  GI50: 13.9 µM
  TGI: 36 µM
SF-268 CNS
  GI50: 11.3 µM
  TGI: 30.5 µM
SR leukemia
  GI50: 2.6 µM
  TGI: 6.64 µM
LOX IMVI melanoma
  GI50: 2 µM
  TGI: 5.01 µM
HS 578T breast
  GI50: 13.3 µM
  TGI: 32.1 µM
SK-OV-3 ovarian
  GI50: 23.9 µM
  TGI: 56.5 µM
SW-620 colon
  GI50: 5.84 µM
  TGI: 19.4 µM
HT29 colon
  GI50: 3.39 µM
  TGI: 12.1 µM
SNB-75 CNS
  GI50: 6.44 µM
  TGI: 25.6 µM
MOLT-4 leukemia
  GI50: 8.13 µM
  TGI: 28 µM
NCI-H226 lung
  GI50: 10.9 µM
  TGI: 34.4 µM
K-562 leukemia
  GI50: 2.78 µM
  TGI: 7.56 µM
DU-145 prostate
  GI50: 18.4 µM
  TGI: 47.7 µM
T-47D breast
  GI50: 12.5 µM
  TGI: 39.8 µM
MDA-MB-435
  GI50: 2.29 µM
  TGI: 5.78 µM
MALME-3M melanoma
  GI50: 1.83 µM
  TGI: 3.86 µM
EKVX NSCLC
  GI50: 22.2 µM
  TGI: 70 µM
SK-MEL-5 melanoma
  GI50: 1.55 µM
  TGI: 2.93 µM
CCRF-CEM leukemia
  GI50: 4.38 µM
  TGI: 34 µM
OVCAR-5 ovarian
  GI50: 16.5 µM
  TGI: 38.2 µM
RXF 393 renal
  GI50: 1.72 µM
  TGI: 5.15 µM
KM12 colon
  GI50: 12.5 µM
  TGI: 28.1 µM
MDA-MB-231 breast
  GI50: 3.47 µM
  TGI: 16.9 µM
RPMI-8226 leukemia
  GI50: 12.4 µM
  TGI: 38.8 µM
BT-549 breast
  GI50: 14.4 µM
  TGI: 34.6 µM
NCI/ADR-RES ovarian
  GI50: 30.7 µM
  TGI: > 100 µM
SNB-19 CNS
  GI50: 18.9 µM
  TGI: 52.7 µM
HCC-2998 colon
  GI50: 7.87 µM
  TGI: 21.3 µM
SK-MEL-2 melanoma
  GI50: 12.6 µM
  TGI: 26.2 µM
UACC-62 melanoma
  GI50: 3.36 µM
  TGI: 11.9 µM
HOP-62 NSCLC
  GI50: 13.2 µM
  TGI: 32.5 µM
OVCAR-8 ovarian
  GI50: 8.29 µM
  TGI: 61.7 µM
NCI-H23 lung
  GI50: 14 µM
  TGI: 34.3 µM
MCF7 breast
  GI50: 7.42 µM
  TGI: 22.7 µM
HCT-116 colon
  GI50: 4.86 µM
  TGI: 17 µM
A498 renal
  GI50: 12.4 µM
  TGI: > 100 µM
NCI-H522 lung
  GI50: 4.4 µM
  TGI: 16.2 µM
U251 CNS
  GI50: 3.4 µM
  TGI: 12.6 µM
ACHN renal
  GI50: 9.21 µM
  TGI: 24.3 µM
COLO 205 colon
  GI50: 6.54 µM
  TGI: 20.8 µM
TK-10 renal
  GI50: 6.46 µM
  TGI: 20.3 µM
HCT-15 colon
  GI50: 10.4 µM
  TGI: 29.5 µM
UACC-257 melanoma
  GI50: 1.79 µM
  TGI: 3.65 µM
786-0 renal
  GI50: 16 µM
  TGI: 36.8 µM
UO-31 renal
  GI50: 15.5 µM
  TGI: 40.6 µM
OVCAR-4 ovarian
  GI50: 15 µM
  TGI: 41.4 µM
HL-60(TB) leukemia
  GI50: 16.3 µM
  TGI: 44.2 µM
A549 NSCLC
  GI50: 11.3 µM
  TGI: 28.6 µM
HOP-92 NSCLC
  GI50: 1.48 µM
  TGI: 13.8 µM

## O=C1c2ccc3c4c(ccc(c24)C(=O)N1CCCNCc1ccccc1F)C(=O)N(CCCNCc1ccccc1F)C3=O
NCI-H460 lung
  GI50: 0.154 µM
  TGI: 0.504 µM
IGROV1 ovarian
  GI50: 0.18 µM
  TGI: 0.543 µM
SF-295 CNS
  GI50: 0.176 µM
  TGI: 0.409 µM
CAKI-1 renal
  GI50: 0.187 µM
  TGI: 0.495 µM
M14 melanoma
  GI50: 0.152 µM
  TGI: 0.293 µM
SF-539 CNS
  GI50: 0.208 µM
  TGI: 0.464 µM
PC-3 prostate
  GI50: 0.228 µM
  TGI: 0.658 µM
OVCAR-3 ovarian
  GI50: 0.189 µM
  TGI: 0.557 µM
SN12C renal
  GI50: 0.144 µM
  TGI: 0.296 µM
SF-268 CNS
  GI50: 0.208 µM
  TGI: 0.534 µM
SR leukemia
  GI50: 0.123 µM
  TGI: 0.614 µM
LOX IMVI melanoma
  GI50: 0.121 µM
  TGI: 0.317 µM
HS 578T breast
  GI50: 0.523 µM
  TGI: 2.86 µM
SK-OV-3 ovarian
  GI50: 0.249 µM
  TGI: 0.635 µM
SW-620 colon
  GI50: 0.0754 µM
  TGI: 0.274 µM
HT29 colon
  GI50: 0.0494 µM
  TGI: 0.203 µM
SNB-75 CNS
  GI50: 0.164 µM
  TGI: 0.32 µM
MOLT-4 leukemia
  GI50: 0.144 µM
  TGI: 0.544 µM
NCI-H226 lung
  GI50: 0.21 µM
  TGI: 0.482 µM
K-562 leukemia
  GI50: 0.209 µM
  TGI: 5.52 µM
DU-145 prostate
  GI50: 0.154 µM
  TGI: 0.287 µM
T-47D breast
  GI50: 0.194 µM
  TGI: 0.417 µM
MDA-MB-435
  GI50: 0.175 µM
  TGI: 0.359 µM
MALME-3M melanoma
  GI50: 0.151 µM
  TGI: 0.299 µM
EKVX NSCLC
  GI50: 0.171 µM
  TGI: 0.331 µM
SK-MEL-5 melanoma
  GI50: 0.163 µM
  TGI: 0.299 µM
CCRF-CEM leukemia
  GI50: 0.166 µM
OVCAR-5 ovarian
  GI50: 0.2 µM
  TGI: 0.449 µM
RXF 393 renal
  GI50: 0.138 µM
  TGI: 0.274 µM
KM12 colon
  GI50: 0.127 µM
  TGI: 0.285 µM
MDA-MB-231 breast
  GI50: 0.25 µM
  TGI: 0.717 µM
RPMI-8226 leukemia
  GI50: 0.272 µM
  TGI: 0.818 µM
BT-549 breast
  GI50: 0.317 µM
  TGI: 0.767 µM
NCI/ADR-RES ovarian
  GI50: 0.206 µM
  TGI: 0.726 µM
SNB-19 CNS
  GI50: 0.136 µM
  TGI: 0.275 µM
HCC-2998 colon
  GI50: 0.158 µM
  TGI: 0.312 µM
SK-MEL-2 melanoma
  GI50: 0.192 µM
  TGI: 0.366 µM
SK-MEL-28 melanoma
  GI50: 0.21 µM
  TGI: 0.465 µM
UACC-62 melanoma
  GI50: 0.179 µM
  TGI: 0.335 µM
HOP-62 NSCLC
  GI50: 0.151 µM
  TGI: 0.331 µM
OVCAR-8 ovarian
  GI50: 0.0954 µM
  TGI: 0.422 µM
NCI-H23 lung
  GI50: 0.171 µM
  TGI: 0.369 µM
MCF7 breast
  GI50: 0.109 µM
  TGI: 0.359 µM
HCT-116 colon
  GI50: 0.0676 µM
  TGI: 0.303 µM
A498 renal
  GI50: 0.31 µM
  TGI: 1.72 µM
NCI-H522 lung
  GI50: 0.154 µM
  TGI: 0.298 µM
ACHN renal
  GI50: 0.127 µM
  TGI: 0.563 µM
COLO 205 colon
  GI50: 0.0863 µM
  TGI: 0.208 µM
UACC-257 melanoma
  GI50: 0.172 µM
  TGI: 0.34 µM
786-0 renal
  GI50: 0.217 µM
  TGI: 0.587 µM
UO-31 renal
  GI50: 0.194 µM
  TGI: 0.468 µM
OVCAR-4 ovarian
  GI50: 0.109 µM
  TGI: 0.237 µM
HL-60(TB) leukemia
  GI50: 0.239 µM
  TGI: 0.542 µM
A549 NSCLC
  GI50: 0.107 µM
  TGI: 0.294 µM
HOP-92 NSCLC
  GI50: 0.238 µM
  TGI: 0.566 µM
